Earlier results, collected in patent US9314435B2, “Stable formulations of antiplatelet agents, omega-3 fatty acids and amylose in soft gelatin capsules” (ALTERGON S.A., priority 2011, dated 2016).

Conditions: 325 mg on alternate days

CC(=O)Oc1ccccc1C(=O)O [ASA, Acetylsalicylic acid]
reduction of the risk of the first heart attack: 44%
